# Experimental data as given in patent publication US20040253277A1, “Anaesthetic formulations of propofol” (priority 2001, published 2004).
# Experiments:
# physchem = conditions: water, thermodynamic from solid
# Procedure: Analyses were performed using the Perkin Elmer Lambda 5 UV/V is Spectrophotometer.
# Two sets of standards were prepared by serial dilution of:
# 1. 10% poloxamer P407/1% Propofol solution in water.
# 2. 1% Propofol solution in ethanol (EtOH).
# Dilutions were performed with water and EtOH respectively. The standards were further diluted one hundred fold prior to measurement of their UV absorption spectra recorded.
# [1] = in vivo; cited from earlier work
smiles,measurement,setting,value
"CC(C)c1cccc(C(C)C)c1O [Propofol, 2,6-bis(1-methylethyl)phenol; 2,6-diisopropylphenol]",solubility thermodynamic,physchem,~1000 µM
same,dose required for long term infusion for anaesthesia,[1],4-12 mg/kg per hour
same,time of maximum effect after dosing,[1],within about one minute
